Results reported in PMC7570620, “Synthesis and Evaluation of the Antitumor Activity of Novel 1-(4-Substituted phenyl)-2-ethyl Imidazole Apoptosis Inducers In Vitro” (Molecules, 2020).

Experiments:
A549 = experiment: MTT cell viability assay, A549; format: cell-based; conditions: Homo sapiens, 24 h incubation, mean ± SD, n = 4
Procedure: (§1) The synthesized compounds were subjected to a cytotoxicity assay using the MTT method, as described previously. IC50 is defined as the drug concentration causing a 50% reduction in cell numbers compared to the untreated control. For screening, we evaluated the effects of the compounds on the growth of three cancer cell lines (A549, SGC-7901, and HeLa). In addition, their toxicities were tested using one normal cell line (L-02). The results are the averages of four separate measurements. MTX and 5-FU served as positive controls.
(§2) The three cancer cell lines namely the human lung cancer cell line (A549), human cervical cancer cell line (HeLa), human gastric carcinoma cell line (SGC-7901), and normal liver cell line (L-02) were acquired from the American Type Culture Collection (Manassas, VA, USA). A549 and SGC-7901 cells were routinely cultured in RPMI-1640. In addition, HeLa and L-02 cells were routinely cultured in DMEM. Media was supplemented with 10% fetal bovine serum (FBS). Cells were maintained at subconfluency at 37 °C in humidified air containing 5% CO2. The cells were monitored daily and maintained at 80% cell density. All compounds tested were dissolved in DMSO and then diluted by the culture medium before the treatment of cultured cells.
(§3) Cytotoxicity of the tested samples was measured against each cell line using the 3-(4,5-dimethylthiazol-2-yl)-2,5-diphenyltetrazolium bromide (MTT) cell viability assay (Maher et al., 2019). Cancer cells (A549, SGC-7901, and HeLa) and L-02 normal cells were harvested during the logarithmic growth phase. All cells were seeded in 96-well plates at 10^4 cells/well and were treated with 5-fluorouracil (5-FU), methotrexate (MTX), and the tested samples for 24 h at final concentrations of […]. Next, 20 µL of freshly prepared MTT (Solarbio) solution (5 mg/mL of MTT in PBS) was added to each well, and the cells were cultured for 4 h at 37 °C. The supernatants were removed and resolved with 100 µL of DMSO, and the cells were shocked for 10 min at 37 °C. The optical density of the samples was measured at 490 nm using a microplate luminometer. Cell viability was expressed as the percentage change in absorbance compared to the control values.

HeLa = experiment: MTT cell viability assay, HeLa; format: cell-based; conditions: Homo sapiens, 24 h incubation, mean ± SD, n = 4
Procedure: as §1, §2, §3

SGC-7901 = experiment: MTT cell viability assay, SGC-7901; format: cell-based; conditions: Homo sapiens, 24 h incubation, mean ± SD, n = 4
Procedure: as §1, §2, §3

L-02 = experiment: MTT cytotoxicity in normal cell line L-02; format: cell-based; conditions: for IC50: Homo sapiens, L02, normal cell line L-02, MTT; for Selectivity Index A549: IC50 in normal cells (L-02)/IC50 in tumor cells (A549); for Selectivity Index HeLa: IC50 in normal cells (L-02)/IC50 in tumor cells (HeLa); for Selectivity Index SGC-7901: IC50 in normal cells (L-02)/IC50 in tumor cells (SGC-7901)
Procedure: as §1
The lack of selectivity between normal and cancer cells is one of the primary limitations of antitumor drugs. We evaluated the cytotoxicity of compounds 4c, 4e–4i, 4l, 4m, and 4q in the normal cell line L-02 to determine the selectivity index (defined as the ratio of cytotoxicity in L-02 cells compared to that in cancer cells). […] Compound 4q yielded satisfactory SI values in HeLa and SGC-7901 cells but an unsatisfactory SI value in A549 cells. […] Compound 4f was selected for the subsequent biological studies.
as §2, §3

Row | SMILES | IC50 (A549) [µM] | IC50 (HeLa) [µM] | IC50 (SGC-7901) [µM] | melting point [°C] | IC50 (L-02) [µM] | Selectivity Index A549 (L-02) | Selectivity Index HeLa (L-02) | Selectivity Index SGC-7901 (L-02)
1 | CCc1nccn1-c1ccc(NC(=O)CCC(=O)O)cc1 [Compound 3, 3-(4-(2-Ethyl-1H-imidazol-1-yl)phenylcarbamoyl)propanoic Acid] | > 100 | > 100 | > 100 | 163 to 165 | – | – | – | –
2 | CCCNC(=O)CCC(=O)Nc1ccc(-n2ccnc2CC)cc1 [Compound 4a, 1-(4-(3-(Propylcarbamoyl)propionamide)phenyl)-2-ethyl Imidazole] | > 100 | > 100 | > 100 | 128 to 130 | – | – | – | –
3 | CCCCNC(=O)CCC(=O)Nc1ccc(-n2ccnc2CC)cc1 [Compound 4b, 1-(4-(3-(Butylcarbamoyl)propionamide)phenyl)-2-ethyl Imidazol] | > 100 | > 100 | 52.5 ± 3.36 | 112 to 115 | – | – | – | –
4 | CCCCCNC(=O)CCC(=O)Nc1ccc(-n2ccnc2CC)cc1 [Compound 4c, 1-(4-(3-(Amylcarbamoyl)propionamide)phenyl)-2-ethyl Imidazole] | 33.9 ± 2.43 | 28.5 ± 2.51 | 18.5 ± 2.12 | 95 to 98 | 114 ± 8.35 | 3.35 | 3.99 | 6.13
5 | CCc1nccn1-c1ccc(NC(=O)CCC(=O)Nc2ccccc2)cc1 [Compound 4d, 1-(4-(3-(Phenylcarbamoyl)propionamide)phenyl)-2-ethylimidazole] | 86.5 ± 10.6 | > 100 | > 100 | 170 to 173 | – | – | – | –
6 | CCc1nccn1-c1ccc(NC(=O)CCC(=O)Nc2ccc(N)cc2)cc1 [Compound 4j, 1-(4-(3-(4-amino-Phenylcarbamoyl)propionamide)phenyl)-2-ethylimidazole] | > 100 | 7.42 ± 0.67 | > 100 | 229 to 231 | – | – | – | –

Continued, in another order:

Row | IC50 (A549) [µM] | IC50 (HeLa) [µM] | IC50 (SGC-7901) [µM] | melting point [°C] | SMILES | IC50 (L-02) [µM] | Selectivity Index A549 (L-02) | Selectivity Index HeLa (L-02) | Selectivity Index SGC-7901 (L-02)
7 | > 100 | 15.2 ± 1.4 | 20.6 ± 2 | 123 to 126 | CCc1nccn1-c1ccc(NC(=O)CCC(=O)NCc2ccccc2)cc1 [Compound 4k, 1-(4-(3-(Benzylcarbamoyl)propionamide)phenyl)-2-ethyl Imidazol] | – | – | – | –
8 | > 100 | 9.36 ± 1.78 | > 100 | 137 to 140 | CCc1nccn1-c1ccc(NC(=O)CCC(=O)NCc2ccc(F)cc2)cc1 [Compound 4n, 1-(4-(3-(4-F-Benzylcarbamoyl)propionamide)phenyl)-2-ethylimidazole] | – | – | – | –
9 | 71.3 ± 9.13 | 12.5 ± 0.91 | 11.6 ± 1.59 | 164 to 166 | CCc1nccn1-c1ccc(NC(=O)CCC(=O)NCc2ccc(C)cc2)cc1 [Compound 4o, 1-(4-(3-(4-Methylbenzylcarbamoyl)propionamide)phenyl)-2-ethylimidazole] | – | – | – | –
10 | 75.9 ± 4 | 25.5 ± 4.94 | 40.3 ± 4.67 | 168 to 171 | CCc1nccn1-c1ccc(NC(=O)CCC(=O)NCc2ccc(OC)cc2)cc1 [Compound 4p, 1-(4-(3-(4-Methoxybenzylcarbamoyl)propanamide)phenyl)-2-ethylimidazole] | – | – | – | –
11 | > 100 | > 100 | 41.9 ± 3.47 | 118 to 121 | CCc1nccn1-c1ccc(NC(=O)CCC(=O)NCc2ccccn2)cc1 [Compound 4r, 1-(4-(3-(Pyridinemethylcarbamoyl)propionamide)phenyl)-2-ethyl Imidazole] | – | – | – | –
12 | 24 ± 3.47 | 14.8 ± 2.05 | 56.3 ± 3.24 | 168 to 170 | CCc1nccn1-c1ccc(NC(=O)CCC(=O)Nc2nccs2)cc1 [Compound 4s, 1-(4-(3-(Thiazolcarbamoyl)propionamide)phenyl)-2-ethyl Imidazole] | – | – | – | –
13 | 16 ± 3.2 | 15 ± 2.47 | 13.7 ± 1.29 | – | CN(Cc1cnc2nc(N)nc(N)c2n1)c1ccc(C(=O)N[C@@H](CCC(=O)O)C(=O)O)cc1 [MTX, methotrexate, reference compound] | 42.9 ± 8.07 | 2.68 | 2.85 | 3.14
